Data reported in ChEMBL document CHEMBL1201862, “PubChem BioAssay data set” (2004).
Calls of active or inactive are those of the source.

What was measured:
[1] = target: Ras and Rab interactor 1/Tyrosine-protein kinase ABL1 (Homo sapiens, UniProt P00519+Q13671); type: functional;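 further: biochemical TR-FRET dose-response test measuring inhibition of binding between Rin1 and Abl proteins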
[2] = target: T1, Adenosylmethionine-8-amino-7-oxononanoate aminotransferase (Mycobacterium tuberculosis, UniProt P9WQ81); experiment: Mycobacterium tuberculosis BioA enzyme inhibitor Measured in Biochemical System Using Plate Reader - 2163-02_Inhibitor_Dose_CherryPick_Activity.; type: functional, Mycobacterium tuberculosis UT205
T1 sequence (P9WQ81 whole entry): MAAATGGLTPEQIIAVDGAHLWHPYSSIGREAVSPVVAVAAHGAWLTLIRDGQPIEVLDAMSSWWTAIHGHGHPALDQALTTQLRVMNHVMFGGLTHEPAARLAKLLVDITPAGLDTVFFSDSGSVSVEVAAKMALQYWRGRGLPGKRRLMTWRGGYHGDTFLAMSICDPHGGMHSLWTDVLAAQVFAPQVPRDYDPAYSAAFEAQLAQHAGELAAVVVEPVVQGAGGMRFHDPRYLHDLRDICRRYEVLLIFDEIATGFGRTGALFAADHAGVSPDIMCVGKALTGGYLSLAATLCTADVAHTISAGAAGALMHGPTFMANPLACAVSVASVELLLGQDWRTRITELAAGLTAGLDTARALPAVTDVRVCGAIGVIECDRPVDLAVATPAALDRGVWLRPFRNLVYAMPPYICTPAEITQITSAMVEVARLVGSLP

Genome polyprotein = Genome polyprotein (dengue virus type 2, UniProt P29990); experiment: flavivirus cap methylation enzyme inhibition – biochemical, confirmation dose response, primary screen (AID 588689); type: functional
Sequence of Genome polyprotein (P29990 2492-3391 limits assumed): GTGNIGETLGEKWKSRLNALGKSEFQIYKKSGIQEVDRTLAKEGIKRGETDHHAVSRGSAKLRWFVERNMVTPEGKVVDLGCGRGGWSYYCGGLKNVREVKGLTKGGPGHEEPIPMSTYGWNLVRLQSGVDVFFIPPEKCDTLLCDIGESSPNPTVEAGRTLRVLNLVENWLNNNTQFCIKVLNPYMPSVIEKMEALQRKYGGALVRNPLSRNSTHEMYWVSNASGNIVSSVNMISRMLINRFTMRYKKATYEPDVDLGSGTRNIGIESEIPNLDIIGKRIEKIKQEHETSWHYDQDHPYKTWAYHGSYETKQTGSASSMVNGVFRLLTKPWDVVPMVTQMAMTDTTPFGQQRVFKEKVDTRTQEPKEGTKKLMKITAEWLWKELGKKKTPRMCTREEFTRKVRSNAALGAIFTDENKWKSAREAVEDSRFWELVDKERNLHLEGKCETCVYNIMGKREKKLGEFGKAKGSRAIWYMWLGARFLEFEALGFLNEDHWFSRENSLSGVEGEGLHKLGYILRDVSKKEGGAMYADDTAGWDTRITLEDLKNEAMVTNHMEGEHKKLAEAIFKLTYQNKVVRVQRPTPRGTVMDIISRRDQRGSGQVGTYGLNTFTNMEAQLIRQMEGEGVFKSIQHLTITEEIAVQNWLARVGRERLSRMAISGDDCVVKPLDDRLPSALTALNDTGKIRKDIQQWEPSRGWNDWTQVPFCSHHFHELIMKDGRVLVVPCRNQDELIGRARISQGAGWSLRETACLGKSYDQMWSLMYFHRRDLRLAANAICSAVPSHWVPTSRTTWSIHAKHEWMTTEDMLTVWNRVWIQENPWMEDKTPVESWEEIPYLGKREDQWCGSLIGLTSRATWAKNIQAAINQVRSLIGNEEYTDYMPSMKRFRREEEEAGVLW

Vero = experiment: viability of Vero cells under compound – cytotoxicity control for flavivirus capping enzyme inhibitors (AID 588742); type: functional; conditions: Chlorocebus sabaeus
Protein RecA = target: T2, Protein RecA (Mycobacterium tuberculosis, UniProt P9WHJ3); experiment: Fluorescence Cell-Free Homogeneous Dose Retest to Identify Inhibitors of RecA-Intein Splicing Activity. [Related pubchem assays (depositor defined):AID2097, AID2223, AID489010, AID492950]; type: functional
T2 sequence (P9WHJ3 whole entry): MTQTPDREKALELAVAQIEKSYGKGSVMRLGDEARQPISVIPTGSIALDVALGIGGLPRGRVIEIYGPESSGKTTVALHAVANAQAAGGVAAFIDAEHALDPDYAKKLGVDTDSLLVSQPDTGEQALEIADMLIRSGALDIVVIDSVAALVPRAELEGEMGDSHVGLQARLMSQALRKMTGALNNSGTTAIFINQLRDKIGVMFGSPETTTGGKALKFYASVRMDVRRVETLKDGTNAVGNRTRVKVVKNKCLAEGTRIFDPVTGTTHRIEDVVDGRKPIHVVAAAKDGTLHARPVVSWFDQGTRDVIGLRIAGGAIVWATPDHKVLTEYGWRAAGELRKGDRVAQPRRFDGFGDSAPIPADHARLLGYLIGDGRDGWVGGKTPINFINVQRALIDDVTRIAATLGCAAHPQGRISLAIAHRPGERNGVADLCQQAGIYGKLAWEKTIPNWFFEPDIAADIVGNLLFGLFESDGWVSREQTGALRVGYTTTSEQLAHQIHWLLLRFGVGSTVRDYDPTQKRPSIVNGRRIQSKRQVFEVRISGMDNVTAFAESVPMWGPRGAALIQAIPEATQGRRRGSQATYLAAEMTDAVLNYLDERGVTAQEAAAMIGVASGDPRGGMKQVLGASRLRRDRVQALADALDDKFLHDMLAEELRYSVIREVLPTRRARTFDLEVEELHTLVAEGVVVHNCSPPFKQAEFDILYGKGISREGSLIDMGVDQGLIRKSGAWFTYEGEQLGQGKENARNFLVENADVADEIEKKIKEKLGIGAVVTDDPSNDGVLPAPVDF

[3] = target: T3, Replicative DNA helicase DnaB (Mycobacterium tuberculosis, UniProt P9WMR3); experiment: DnaB intein splicing inhibitors, dose response, biochemical, cell-free fluorescence (AID 449749); type: functional
T3 sequence (P9WMR3 whole entry): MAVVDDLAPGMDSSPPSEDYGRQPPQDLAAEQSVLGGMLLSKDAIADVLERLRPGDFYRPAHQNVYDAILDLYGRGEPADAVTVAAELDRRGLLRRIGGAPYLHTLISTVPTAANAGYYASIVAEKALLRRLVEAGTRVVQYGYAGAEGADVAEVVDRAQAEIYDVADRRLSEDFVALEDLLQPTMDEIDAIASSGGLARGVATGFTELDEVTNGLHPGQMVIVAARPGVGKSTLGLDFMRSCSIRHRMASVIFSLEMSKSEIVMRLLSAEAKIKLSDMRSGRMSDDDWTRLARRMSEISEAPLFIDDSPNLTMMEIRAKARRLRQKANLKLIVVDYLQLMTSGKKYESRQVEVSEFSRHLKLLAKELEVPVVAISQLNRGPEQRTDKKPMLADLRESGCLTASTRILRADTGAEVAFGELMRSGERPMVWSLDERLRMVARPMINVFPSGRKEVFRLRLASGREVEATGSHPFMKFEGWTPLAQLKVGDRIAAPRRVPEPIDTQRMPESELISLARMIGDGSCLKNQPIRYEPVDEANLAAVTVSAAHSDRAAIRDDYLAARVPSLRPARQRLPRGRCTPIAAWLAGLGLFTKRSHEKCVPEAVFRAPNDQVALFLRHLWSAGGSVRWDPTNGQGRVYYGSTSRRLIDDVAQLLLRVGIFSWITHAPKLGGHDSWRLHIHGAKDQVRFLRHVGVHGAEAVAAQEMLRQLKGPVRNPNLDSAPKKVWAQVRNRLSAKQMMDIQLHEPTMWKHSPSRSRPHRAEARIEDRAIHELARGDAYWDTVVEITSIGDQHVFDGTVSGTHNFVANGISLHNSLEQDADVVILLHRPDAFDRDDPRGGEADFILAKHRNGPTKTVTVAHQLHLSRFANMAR

[4] = NIH3T3 cell viability loss – ATP luminescence, mouse fibroblasts, counter-screen, dose response (AID 2010); type: functional, cell-based;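 further: cells exposed to compound for about 90 hours before reading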
[5] = Trypanosoma cruzi growth suppression in host cells – NIH3T3 host cells, beta-gal luminescence, confirmation (AID 2044); type: functional, cell-based;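 further: intracellular parasites grown in NIH/3T3 mouse fibroblasts as host cells; luminescent beta-galactosidase reporter signal from transgenic T. cruzi replicating inside host cells; inhibitors lower the luminescence signal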
[6] = target: T4, Small ubiquitin-related modifier 1 (Homo sapiens, UniProt P63165); experiment: SUMO1 protein-protein binding blockers, potency – biochemical, FRET, dose response (AID 624383); type: functional; conditions: read-out: IC50_Mean
T4 sequence (P63165 whole entry): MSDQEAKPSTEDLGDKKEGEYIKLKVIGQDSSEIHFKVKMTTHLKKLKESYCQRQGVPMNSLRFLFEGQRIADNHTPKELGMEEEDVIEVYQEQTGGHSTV

[7] = target: T4, Small ubiquitin-related modifier 1; experiment: SUMO1 protein interaction blockers, potency – biochemical, fluorescence polarization, uHTS hits, dose response (AID 624382); type: functional; conditions: read-out: IC50_Mean
[8] = viability loss in THP-1 monocytes – THP-1 cells, cytotoxicity control for Vif-APOBEC3G degradation inhibitor project, dose response (AID 1117359); type: functional; conditions: THP-1
[9] = target: T5, Probable nicotinate-nucleotide adenylyltransferase (Staphylococcus aureus (strain N315), UniProt P65502); type: functional, Staphylococcus aureus subsp. aureus N315; conditions: read-out: IC50_Mean;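 on IC50 Mean: confirmatory dose-response retesting of NadD inhibitor hits first found in an ultra-high-throughput screen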
T5 sequence (P65502 whole entry): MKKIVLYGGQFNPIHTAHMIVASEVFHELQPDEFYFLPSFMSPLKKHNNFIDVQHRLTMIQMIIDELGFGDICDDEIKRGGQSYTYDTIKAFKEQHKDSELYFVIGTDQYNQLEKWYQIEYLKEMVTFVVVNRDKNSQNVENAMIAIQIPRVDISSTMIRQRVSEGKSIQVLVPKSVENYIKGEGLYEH

[10] = target: T5, Probable nicotinate-nucleotide adenylyltransferase; type: functional, Staphylococcus aureus subsp. aureus N315
[11] = THP-1 cell cytotoxicity, dose response, cytotoxicity control for non-replicating M. tuberculosis project (AID 489025); type: functional
[12] = HepG2 cell cytotoxicity, dose response, cytotoxicity control for non-replicating M. tuberculosis project (AID 489018); type: functional; conditions: Mycobacterium tuberculosis
[13] = Vero E6 cell cytotoxicity, dose response, cytotoxicity control for non-replicating M. tuberculosis project, secondary assay (AID 492998); type: functional, VeroE6; conditions: Vero C1008
[14] = viability loss in HeLa cells – cytotoxicity control for MgcRacGAP inhibitor project, dose response (AID 624300); type: functional
[15] = Luminescence Cell-Based Dose Retest to Confirm Inhibitors of Cancer Stem Cells. [Related pubchem assays (depositor defined):AID2717, AID2721]; type: functional; conditions: Homo sapiens
[16] = target: T6, Long-chain-fatty-acid--AMP ligase FadD28 (Mycobacterium tuberculosis, UniProt P9WQ59); experiment: Fluorescence polarization aasay to screen for inhibitors that compete for the binding of FadD28 to a bisubstrate Measured in Biochemical System Using Plate Reader - 2147-01_Inhibitor_Dose_CherryPick_Activity.; type: functional, Mycobacterium tuberculosis H37Rv
T6 sequence (P9WQ59 whole entry): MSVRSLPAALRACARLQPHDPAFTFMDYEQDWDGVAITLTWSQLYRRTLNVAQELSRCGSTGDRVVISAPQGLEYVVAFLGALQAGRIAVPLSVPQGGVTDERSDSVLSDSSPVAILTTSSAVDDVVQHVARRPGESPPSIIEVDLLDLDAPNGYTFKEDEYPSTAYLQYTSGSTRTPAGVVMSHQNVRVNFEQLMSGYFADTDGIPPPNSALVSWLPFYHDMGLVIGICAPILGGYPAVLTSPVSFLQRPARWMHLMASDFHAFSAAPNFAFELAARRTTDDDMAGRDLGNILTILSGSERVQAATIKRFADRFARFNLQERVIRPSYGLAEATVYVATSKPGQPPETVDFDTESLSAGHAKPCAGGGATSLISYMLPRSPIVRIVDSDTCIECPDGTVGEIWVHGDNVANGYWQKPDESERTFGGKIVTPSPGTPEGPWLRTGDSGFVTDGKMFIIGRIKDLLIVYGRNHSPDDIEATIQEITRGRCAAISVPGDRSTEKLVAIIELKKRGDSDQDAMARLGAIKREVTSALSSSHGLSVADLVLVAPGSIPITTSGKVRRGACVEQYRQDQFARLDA

[17] = target: T7, RNA-binding protein pos-1 (Caenorhabditis elegans, UniProt G5EF15); experiment: disruptors of C. elegans POS-1 RNA interaction – biochemical, fluorescence polarization, dose response (AID 1964);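 further: purified POS-1 fused to maltose binding protein made in E. coli; potency of compounds blocking POS-1 binding to fluorescent RNA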
T7 sequence (G5EF15 whole entry): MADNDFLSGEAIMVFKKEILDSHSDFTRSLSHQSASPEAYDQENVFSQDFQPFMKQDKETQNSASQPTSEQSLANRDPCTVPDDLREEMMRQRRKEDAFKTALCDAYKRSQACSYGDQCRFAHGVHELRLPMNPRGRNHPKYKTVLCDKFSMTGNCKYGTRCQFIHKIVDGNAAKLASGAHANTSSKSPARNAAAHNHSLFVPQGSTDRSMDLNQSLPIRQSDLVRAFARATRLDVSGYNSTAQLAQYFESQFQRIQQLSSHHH

[18] = target: T8, Zinc finger protein mex-5 (Caenorhabditis elegans, UniProt Q9XUB2); experiment: potency of MEX-5 RNA-binding blockers – biochemical, C. elegans, fluorescence polarization, dose response (AID 1960)
T8 sequence (Q9XUB2 whole entry): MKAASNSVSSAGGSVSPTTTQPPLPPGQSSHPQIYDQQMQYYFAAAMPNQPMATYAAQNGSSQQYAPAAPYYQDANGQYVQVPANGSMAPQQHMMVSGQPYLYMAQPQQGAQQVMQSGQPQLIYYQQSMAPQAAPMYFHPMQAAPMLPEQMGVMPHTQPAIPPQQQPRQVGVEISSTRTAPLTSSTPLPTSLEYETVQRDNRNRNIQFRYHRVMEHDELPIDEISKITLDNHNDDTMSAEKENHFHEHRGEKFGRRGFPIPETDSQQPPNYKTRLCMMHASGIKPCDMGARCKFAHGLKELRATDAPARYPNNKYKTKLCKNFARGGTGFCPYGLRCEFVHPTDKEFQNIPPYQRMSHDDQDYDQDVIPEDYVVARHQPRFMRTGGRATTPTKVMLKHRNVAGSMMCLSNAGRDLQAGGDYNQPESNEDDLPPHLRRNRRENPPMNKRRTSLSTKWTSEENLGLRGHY

[19] = target: Photoreceptor-specific nuclear receptor (Homo sapiens, UniProt Q9Y5X4); type: functional, cell-based;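 further: CHO-S cells with Gal4-NCOR and VP16-NR2E3 two-hybrid luciferase reporter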
Sequence of Photoreceptor-specific nuclear receptor (Q9Y5X4 whole entry, the tested form may be a part): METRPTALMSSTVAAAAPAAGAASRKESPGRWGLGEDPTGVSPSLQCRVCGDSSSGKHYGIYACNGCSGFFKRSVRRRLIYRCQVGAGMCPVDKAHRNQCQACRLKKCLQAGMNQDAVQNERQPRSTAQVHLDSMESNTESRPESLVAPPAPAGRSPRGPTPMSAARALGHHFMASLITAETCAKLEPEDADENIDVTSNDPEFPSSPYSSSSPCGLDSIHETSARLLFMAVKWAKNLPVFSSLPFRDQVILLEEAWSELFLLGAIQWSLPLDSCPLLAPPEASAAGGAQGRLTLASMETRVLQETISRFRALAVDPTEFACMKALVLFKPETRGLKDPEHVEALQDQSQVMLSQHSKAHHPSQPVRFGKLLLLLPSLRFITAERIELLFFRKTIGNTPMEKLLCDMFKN

[20] = target: T9, Low molecular weight phosphotyrosine protein phosphatase (Homo sapiens, UniProt P24666); type: functional; conditions: read-out: IC50_Mean
T9 sequence (P24666 whole entry): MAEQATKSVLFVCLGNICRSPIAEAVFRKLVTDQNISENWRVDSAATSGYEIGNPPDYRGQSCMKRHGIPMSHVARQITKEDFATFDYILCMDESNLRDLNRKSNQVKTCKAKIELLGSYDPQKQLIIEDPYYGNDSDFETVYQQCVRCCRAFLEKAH

Sequence of Ras and Rab interactor 1/Tyrosine-protein kinase ABL1 (P00519 whole entry): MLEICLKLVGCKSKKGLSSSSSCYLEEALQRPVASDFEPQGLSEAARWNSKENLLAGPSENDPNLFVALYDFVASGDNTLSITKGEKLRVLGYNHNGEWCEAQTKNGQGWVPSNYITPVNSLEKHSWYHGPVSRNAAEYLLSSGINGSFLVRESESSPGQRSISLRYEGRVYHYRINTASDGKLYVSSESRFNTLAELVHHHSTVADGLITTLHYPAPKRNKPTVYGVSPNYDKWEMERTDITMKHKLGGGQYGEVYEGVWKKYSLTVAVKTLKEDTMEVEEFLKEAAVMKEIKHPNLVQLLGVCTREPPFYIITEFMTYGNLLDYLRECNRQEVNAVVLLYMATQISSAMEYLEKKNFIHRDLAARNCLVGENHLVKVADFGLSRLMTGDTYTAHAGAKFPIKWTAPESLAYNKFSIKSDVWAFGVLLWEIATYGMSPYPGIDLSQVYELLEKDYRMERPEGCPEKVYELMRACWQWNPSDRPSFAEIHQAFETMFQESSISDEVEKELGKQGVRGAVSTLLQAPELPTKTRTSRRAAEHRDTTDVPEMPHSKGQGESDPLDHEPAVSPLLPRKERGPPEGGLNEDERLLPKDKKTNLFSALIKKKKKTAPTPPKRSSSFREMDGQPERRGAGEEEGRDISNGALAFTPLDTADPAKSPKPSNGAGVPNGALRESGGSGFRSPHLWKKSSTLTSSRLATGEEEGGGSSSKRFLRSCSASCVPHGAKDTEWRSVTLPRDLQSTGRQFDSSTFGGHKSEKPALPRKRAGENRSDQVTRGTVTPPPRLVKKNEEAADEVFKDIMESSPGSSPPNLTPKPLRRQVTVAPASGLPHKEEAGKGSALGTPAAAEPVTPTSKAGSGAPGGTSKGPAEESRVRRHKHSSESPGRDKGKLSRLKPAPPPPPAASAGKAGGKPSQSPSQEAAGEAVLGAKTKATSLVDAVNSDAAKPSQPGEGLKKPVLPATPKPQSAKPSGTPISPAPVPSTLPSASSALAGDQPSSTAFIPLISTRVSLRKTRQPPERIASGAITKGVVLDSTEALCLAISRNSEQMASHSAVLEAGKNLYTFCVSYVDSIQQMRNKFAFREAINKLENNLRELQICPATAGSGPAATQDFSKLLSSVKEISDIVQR
Sequence of Ras and Rab interactor 1/Tyrosine-protein kinase ABL1 (Q13671 whole entry): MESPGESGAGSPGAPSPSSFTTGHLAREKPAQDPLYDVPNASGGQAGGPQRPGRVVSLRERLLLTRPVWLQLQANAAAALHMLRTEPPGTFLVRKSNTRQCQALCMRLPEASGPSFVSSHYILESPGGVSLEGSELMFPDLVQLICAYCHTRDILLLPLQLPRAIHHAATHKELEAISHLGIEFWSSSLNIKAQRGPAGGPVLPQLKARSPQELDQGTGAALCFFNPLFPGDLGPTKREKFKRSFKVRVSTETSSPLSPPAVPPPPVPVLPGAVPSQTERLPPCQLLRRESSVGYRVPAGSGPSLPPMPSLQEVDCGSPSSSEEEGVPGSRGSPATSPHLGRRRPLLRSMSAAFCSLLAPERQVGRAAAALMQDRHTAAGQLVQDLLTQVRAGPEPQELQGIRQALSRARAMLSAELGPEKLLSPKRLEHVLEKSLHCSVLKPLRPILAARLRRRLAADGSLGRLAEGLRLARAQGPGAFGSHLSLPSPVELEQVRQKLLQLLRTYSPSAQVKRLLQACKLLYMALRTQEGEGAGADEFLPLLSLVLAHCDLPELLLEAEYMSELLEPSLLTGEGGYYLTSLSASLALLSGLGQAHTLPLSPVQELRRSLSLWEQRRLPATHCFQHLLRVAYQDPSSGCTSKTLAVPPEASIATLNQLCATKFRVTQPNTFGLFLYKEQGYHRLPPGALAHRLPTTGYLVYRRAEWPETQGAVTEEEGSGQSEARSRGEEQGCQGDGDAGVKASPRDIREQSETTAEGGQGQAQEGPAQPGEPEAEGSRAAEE

CCOC(=O)c1ccc(NC(=O)NC2CC3CCC(C2)N3)cc1 (stereo unspecified)
IC50 [1]: 31.7 µM (inactive)

CCCc1cc(=O)oc2c3c(cc(OCC(=O)NCCCn4ccnc4)c12)OC(C)(C)CC3
AC50 [2]: 5.93 µM (active)

O=C(c1cccc(F)c1)N1CC[C@@H]2[C@H](CO)Nc3ccc(-c4cccc(F)c4)cc3[C@@H]21
AC50 [2]: 0.185 µM (active)

O=C(Nc1ccn([C@H]2CC[C@@H](CO)O2)c(=O)n1)c1ccccc1
IC50 [1]: 66.6 µM (inactive)

C[C@@H]1CN([C@H](C)CO)C(=O)Cc2cc(NC(=O)Cn3cnnn3)ccc2O[C@H]1CN(C)Cc1ccc2c(c1)OCO2
AC50 [2]: 7.3 µM (active)

CCOC(=O)c1c(NC(=O)/C=C/C(=O)O)sc(C)c1-c1ccc(C)c(C)c1
IC50 (Genome polyprotein): 75.1 µM (active)
CC50 (Vero): > 40 µM (active)
EC50 (Protein RecA): 1.89 µM (active)
AC50 [3]: 8.39 µM (active)

O=C(Nc1cccc(NC(=O)c2ccc(-c3ccc(Br)cc3)o2)c1)c1ccco1
EC50 [4]: > 30 µM (not active)
EC50 [5]: 2.73 µM (active)
IC50 [6]: 6.92 µM (active)
IC50 [7]: > 66.6 µM (inactive)

O=C(NC(=S)Nc1cccc(S(=O)(=O)NC2=NCCC2)c1)c1cc(-c2ccco2)nc2ccccc12
CC50 [8]: > 40 µM (active)
IC50 [9]: 35 µM (active)
IC50 [10]: 10.4 µM (active)

COc1cc(CNCCNC(=O)c2nonc2N)ccc1OCc1ccc(Cl)cc1
CC50 [11]: 24.3 µM (active)
CC50 [12]: > 20 µM (active)
CC50 [13]: > 20 µM (active)
CC50 [14]: 75.4 µM (active)

Cc1ccc([N+](=O)[O-])cc1-c1ccc(/C=C(\C#N)c2[nH]nc(N)c2C#N)o1
IC50 [6]: 1.74 µM (active)
AC50 [15]: 2.98 µM (active)
IC50 [7]: > 66.6 µM (inactive)

Cc1cccc(NC(=O)CN2C(=O)N/C(=C\c3cccn3-c3cccc(C(=O)O)c3)C2=O)c1
AC50 [16]: > 100 µM (inactive)
EC50 [17]: > 300 µM (not active)
EC50 [18]: > 300 µM (not active)

Cc1cnc(NC(=O)C2CC(=O)N(c3ccc4c(c3)OCCO4)C2)s1 (stereo unspecified)
IC50 [19]: 7.49 µM (active)

c1coc(CNc2ncnc3ccccc23)c1
IC50 [19]: 4.34 µM (active)

Clc1ccc(Br)cc1-c1nc(-c2ccncc2)no1
IC50 [20]: 12.2 µM (active)

O=C(Nc1ccc(S(=O)(=O)Nc2nccs2)cc1)c1cc(-c2ccccc2Cl)nc2ccccc12
IC50 [9]: 22.2 µM (active)
IC50 [10]: 6.99 µM (active)
